≈ marks a conversion by molar mass, not a printed value.
Columns and labels:
[1] = test system: Mycolicibacterium smegmatis; assay: Antibacterial activity against Mycobacterium smegmatis mc2 155 assessed as bacterial growth inhibition; type: functional
[2] = test system: Staphylococcus aureus; assay: Antibacterial activity against methicillin-resistant Staphylococcus aureus N315 assessed as bacterial growth inhibition; type: functional
[3] = test system: Staphylococcus aureus; assay: Antibacterial activity against methicillin-resistant and vancomycin-intermediate Staphylococcus aureus Mu50 assessed as bacterial growth inhibition; type: functional
[4] = test system: Escherichia coli; assay: Antibacterial activity against Escherichia coli K12 harbouring TolC-deficient mutant assessed as bacterial growth inhibition; type: functional
[5] = test system: Streptococcus pneumoniae; assay: Antibacterial activity against penicillin-resistant Streptococcus pneumoniae DSM-11865 assessed as bacterial growth inhibition; type: functional
[6] = test system: Streptococcus pneumoniae; assay: Antibacterial activity against Streptococcus pneumoniae DSM-20566 assessed as bacterial growth inhibition; type: functional
[7] = test system: Staphylococcus aureus; assay: Antibacterial activity against methicillin-sensitive Staphylococcus aureus Newman assessed as bacterial growth inhibition; type: functional
[8] = test system: Enterococcus faecium; assay: Antibacterial activity against Enterococcus faecium DSM-20477 assessed as bacterial growth inhibition; type: functional
[9] = test system: Escherichia coli; assay: Antibacterial activity against wild type Escherichia coli DSM-11116 assessed as bacterial growth inhibition; type: functional
[10] = test system: Enterococcus faecalis; assay: Antibacterial activity against Enterococcus faecalis DSM-20478 assessed as bacterial growth inhibition; type: functional
[11] = Chemical stability of compound in DMSO assessed as change in mass and purity incubated for 2 days by LC-MS analysis; type: physicochemical; conditions: 48 h; time 2 day
[12] = Stability of the compound in presence of 25kGy gamma irradiation assessed as change in mass and purity by LC-MS analysis; type: physicochemical
[13] = Chemical stability of compound in DMSO assessed as change in retardation factor incubated for 2 days; type: physicochemical; conditions: 48 h; time 2 day
[14] = Chemical stability of compound in DMSO assessed as change in physico-chemical properties incubated for 2 days; type: physicochemical; conditions: 48 h; time 2 day
[15] = Cytotoxicity against human HepG2 cells assessed as inhibition of cell growth; type: toxicity, cell-based
[16] = test system: Mycolicibacterium smegmatis; assay: Antibacterial activity against Mycobacterium smegmatis assessed as bacterial growth inhibition; type: functional
[17] = test system: Escherichia coli; assay: Antibacterial activity against Escherichia coli harbouring TolC-deficient mutant assessed as bacterial growth inhibition; type: functional
[18] = Selectivity index, ratio of IC50 for cytotoxicity against human HepG2 cells to MIC for antibacterial activity against Enterococcus faecalis DSM-20478; type: toxicity, cell-based
[19] = Selectivity index, ratio of IC50 for cytotoxicity against human HepG2 cells to MIC for antibacterial activity against methicillin-sensitive Staphylococcus aureus Newman; type: toxicity, cell-based
[20] = Selectivity index, ratio of IC50 for cytotoxicity against human HepG2 cells to MIC for antibacterial activity against Enterococcus faecium DSM-20477; type: toxicity, cell-based
[21] = Selectivity index, ratio of IC50 for cytotoxicity against human HepG2 cells to MIC for antibacterial activity against Streptococcus pneumoniae DSM-20566; type: toxicity, cell-based

| SMILES | MIC [1] [µg/mL] | MIC [2] [µg/mL] | MIC [3] [µg/mL] | MIC [4] [µg/mL] | MIC [5] [µg/mL] | MIC [6] [µg/mL] | MIC [7] [µg/mL] | MIC [8] [µg/mL] | MIC [9] [µg/mL] | MIC [10] [µg/mL] | IC50 [15] [µg/mL] | other results |
| --- | --- | --- | --- | --- | --- | --- | --- | --- | --- | --- | --- | --- |
| CCCCNc1nc(SCCCC)nc2ccc(-c3cccc(C#N)c3)cc12 | > 128 | > 128 | > 128 | > 128 | > 128 | > 128 | > 128 | > 128 | > 128 | > 128 | – | – |
| CCCCNc1nc(SCCCC)nc2cc(F)ccc12 | > 128 | > 128 | > 128 | > 128 | > 128 | > 128 | > 128 | > 128 | > 128 | > 128 | – | Stability [11]: Stable; Stability [12]: Stable; Stability [13]: Stable; Stability [14]: Stable |
| CCCCNc1nc(SCCCC)nc2sccc12 | 16 (≈ 54.1 µM) | 32 (≈ 108 µM) | > 128 | 8 (≈ 27.1 µM) | 8 (≈ 27.1 µM) | 8 (≈ 27.1 µM) | 8 (≈ 27.1 µM) | > 128 | > 128 | > 128 | > 37 | – |
| CCCCNc1nc(SCCCC)nc2n[nH]cc12 | > 128 | > 128 | > 128 | 4 (≈ 14.3 µM) | > 128 | > 128 | > 128 | > 128 | > 128 | > 128 | – | Stability [11]: Stable; Stability [12]: Stable; Stability [13]: Stable; Stability [14]: Stable |
| CCCCNc1nc(SCCCC)nc2ccc(-c3ccncc3)cc12 | > 128 | > 128 | > 128 | > 128 | > 128 | > 128 | > 128 | > 128 | > 128 | > 128 | – | – |
| CCCCNc1nc(SCCCC)nc2ccc(NC(=O)NCC)cc12 | > 128 | > 128 | > 128 | > 128 | > 128 | > 128 | > 128 | > 128 | > 128 | > 128 | – | – |
| CCCCNc1nc(SCCCC)nc2ccccc12 | 8 (≈ 27.6 µM) | 8 (≈ 27.6 µM) | 4 (≈ 13.8 µM) | 2 (≈ 6.91 µM) | 3 (≈ 10.4 µM) | 4 (≈ 13.8 µM) | 8 (≈ 27.6 µM) | 4 (≈ 13.8 µM) | > 128 | 4 (≈ 13.8 µM) | – | MIC [16]: 2 µg/mL (≈ 6.91 µM); MIC [17]: 2 µg/mL (≈ 6.91 µM) |
| CCCCNc1nc(SCCCC)nc2ccc(-c3cccc(O)c3)cc12 | 16 (≈ 41.9 µM) | > 128 | > 128 | > 128 | 16 (≈ 41.9 µM) | 1 (≈ 2.62 µM) | 2 (≈ 5.24 µM) | 4 (≈ 10.5 µM) | > 128 | 2 (≈ 5.24 µM) | 15.3 (≈ 40.1 µM) | selectivity ratio [18]: 3; selectivity ratio [19]: 3; selectivity ratio [20]: 3; selectivity ratio [21]: 3 |
| CCCCNc1nc(SCCCC)nc2ccc(-c3ccccc3)cc12 | > 128 | > 128 | > 128 | > 128 | > 128 | > 128 | > 128 | > 128 | > 128 | > 128 | – | Stability [11]: Stable; Stability [12]: Stable; Stability [13]: Stable; Stability [14]: Stable |
| CCCCNc1nc(SCCCC)nc2ccc(-c3cccc(C(=O)O)c3)cc12 | > 128 | 8 (≈ 19.5 µM) | 8 (≈ 19.5 µM) | > 128 | 16 (≈ 39.1 µM) | 4 (≈ 9.77 µM) | 8 (≈ 19.5 µM) | 8 (≈ 19.5 µM) | > 128 | 8 (≈ 19.5 µM) | > 37 | – |
| CCCCSc1nc(SCCCC)c2cc(N)ccc2n1 | 32 (≈ 99.5 µM) | 4 (≈ 12.4 µM) | 4 (≈ 12.4 µM) | > 128 | 8 (≈ 24.9 µM) | 4 (≈ 12.4 µM) | 8 (≈ 24.9 µM) | 8 (≈ 24.9 µM) | > 128 | 32 (≈ 99.5 µM) | > 37 | – |
| CCCCNc1nc(SCCCC)nc2ccc(-c3cccc(OC)c3)cc12 | > 128 | > 128 | > 128 | > 128 | > 128 | > 128 | > 128 | > 128 | > 128 | > 128 | – | – |
| CCCCSc1nc(SCCCC)c2cc(NS(=O)(=O)CC)ccc2n1 | > 128 | > 128 | > 128 | > 128 | 3 (≈ 7.25 µM) | 4 (≈ 9.67 µM) | > 128 | 8 (≈ 19.3 µM) | > 128 | 8 (≈ 19.3 µM) | > 37 | – |
| CCCCNc1nc(SCCCC)nc2nn(CCCC)cc12 | > 128 | > 128 | > 128 | > 128 | > 128 | > 128 | > 128 | > 128 | > 128 | > 128 | – | – |
| CCCCNc1nc(SCCCC)nc2ccc(-c3cccnc3)cc12 | > 128 | > 128 | > 128 | > 128 | > 128 | > 128 | > 128 | > 128 | > 128 | > 128 | – | – |
| CCCCNc1nc(SCCCC)nc2ccc(-c3cn[nH]c3)cc12 | > 128 | > 128 | > 128 | > 128 | > 128 | > 128 | > 128 | > 128 | > 128 | > 128 | – | – |

— ChEMBL document CHEMBL5131432, “Novel 2,4-disubstituted quinazoline analogs as antibacterial agents with improved cytotoxicity profile: Modification of the benzenoid part” (Bioorg Med Chem Lett, 2022)
